The test system of one assay is pERK in NCI-H1373 tumor. Description: Intratumoral pERK inhibitory action in NCI-H1373 tumor of nude mice (TR-FRET). It counts as in vivo, mouse. The settings on record: Mus musculus, 6 h, tumor six hours after administration. On the procedure:
Evaluation of Intratumoral pERK Inhibitory Action
The phosphorylation amount of ERK in tumor sample after administration of test compound was examined by using pERK measurement kit (Advanced ERK phospho-T202/Y204 kit, Cisbio co., Ltd) through a TR-FRET method.
2.0 to 5.0×10^6 NCI-H1373 cells were prepared by using a solution in which an equivalent amount of Matrigel (Becton. Dickinson and Company) was added to PBS, were injected subcutaneously in a volume of 100 μL and planted to male nude mice of 4-5 weeks old (CAnN.Cg-Foxn 1 nu/CrlCrlj (nu/nu), Charles River Laboratories Japan, Inc.), and then the male nude mice were used for the test 15 to 26 days later. The test was conducted with three mice in a solvent group and three mice in a test compound administration group, and the test compounds were prepared by using a solvent such that the dosage thereof is as indicated in Table 4. The test compound was administered subcutaneously or orally. For subcutaneous administration, physiological saline supplemented with equimolar hydrochloric acid was used as a solvent. For oral administration, 6% 2-hydroxypropyl-β-cyclodextrin (Sigma-Aldrich Co. LLC) was used as a solvent. Six hours after the administration, a tumor was excised from a cervical dislocated mouse under isoflurane anesthesia, and a part thereof was put into a 2 mL Eppendorf tube and frozen using liquid nitrogen. The tumor sample was stored in a deep freezer at −80° C. until it was subjected to the pERK measurement test.
500 μL of lysis buffer 1 (Phospholysis buffer [Cisbio Co., Ltd], Complete EDTA free [Roche Diagnostics K.K.], Phosphatase inhibitor cocktail 2 [Sigma-Aldrich Co. LLC]) and one bead (5 mm YTZ ball [Nikkato Corp.]) was added to the tumor sample, and crushed (frequency 25/s for 3 minutes) by using Tissue Lyser II (QIAGEN GmbH). The whole amount was transferred to a new tube and centrifuged (20,400×g for 10 minutes, 4° C.) by using a micro amount high speed cooling centrifuge so as to obtain a tumor lysate which is a supernatant. Protein quantification of tumor lysate was performed by using a protein quantification kit (Pierce 660 nm Protein Assay Kit [Thermo Fisher Scientific Inc.]), and each sample was diluted by using lysis buffer 2 (Phosphorysis buffer [Cisbio Co., Ltd], Blocking Agent [attached to pERK measurement kit]) such that the amount thereof is to be a final concentration of 0.5 μg/μL.
Each of p-ERK1/2 Cryptate antibody and p-ERK1/2 d2 antibody (attached to pERK measurement kit) was diluted 20-fold with each detection buffer (attached to pERK measurement kit), and thereby a mixed solution of these two types of antibodies was prepared. A mixed solution of antibody was added to a 384 well plate at a volume of 4 μL/well. Further, tumor lysate diluted to 0.5 μg/μL was added at a volume of 16 μL/well. After standing at room temperature in a wet box for about 17 hours, the fluorescence intensity at 620 nm and 665 nm was measured under the condition of excitation wavelength of 337 nm by using EnVision 2103 Multilabel Reader (PerkinElmer Co., Ltd.).

Assay [1] addresses T1, KRAS G12C/SOS/c-Raf complex (Homo sapiens, UniProt P01116, G12C).
T1 construct: Biotinylated AviTag-KRAS G12C (amino acid region 1-185, GDP)
Description: KRAS G12C/SOS/c-Raf complex formation inhibitory action (TR-FRET). The settings on record: one hour at room temperature, read-out: IC50 (KRAS G12C/SOS/c-Raf complex formation inhibition). The class given is biochemical. In short, it runs like this:
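Biotin-AviTag KRAS G12C (1-185, GDP-bound) was mixed with compound (4,000 to 4 nM stock dilutions), SOS (564-1049), GST-c-Raf (51-131) and GTP in pH 7.4 HEPES/NaCl/MgCl2/Tween buffer for 1 h at room temperature. Complex formation was read by TR-FRET with Eu-streptavidin and ULight-anti-GST (ex 337 nm, em 620/665 nm).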
(In general: Time-resolved FRET reads energy transfer from a long-lived donor to a nearby acceptor.)

The next assay concerns NCI-H1373 cells. Description: Anchorage-independent cell proliferation inhibitory action, NCI-H1373 spheroid three-dimensional culture. The class given is cell-based, Human. The settings on record: Homo sapiens, NCI-H1373, 144 h, NCI-H1373 spheroid, six days, CellTiter Glo; read-out: IC50 (anchorage-independent cell proliferation inhibition). In short, it runs like this:
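KRAS G12C NCI-H1373 cells were grown as spheroids in low-attachment U-bottom wells and treated the next day with compound, six points from 1,000 to 0.3 nM final. After six days at 37°C, viability was read by CellTiter-Glo luminescence. IC50 was fitted by Sigmoid-Emax regression, with DMSO set as 0% and cell-free medium as 100% inhibition.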
A general note: Cellular ATP, detected with luciferase, serves as a proxy for viable cell number.

Assay [2] deals with ERK phosphorylation (Thr 202/Tyr 204) in NCI-H1373 cells. Description: ERK phosphorylation inhibitory action in NCI-H1373 (Cell ELISA). It counts as cell-based, Human. The note with it: Homo sapiens, NCI-H1373, 2 h, NCI-H1373 cells, cultured for 2 hours, 100% = 1 μM Trametinib; read-out: IC50 (ERK phosphorylation inhibition). In short, it runs like this: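 KRAS G12C NCI-H1373 cells (2×10^4/well) were treated with compound (six points, 1,000–0.3 nM final) for 2 h. Phospho-ERK Thr202/Tyr204 was measured by in-cell ELISA with an IRDye 800CW secondary antibody. IC50 was fitted by sigmoid-Emax regression against DMSO (0%) and 1 μM trametinib (100%).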
A general note: An ELISA detects its analyte on a solid surface through an enzyme-linked reagent.

T1 sequence (P01116 1-185 isoform P01116-2 G12C, one chain of several): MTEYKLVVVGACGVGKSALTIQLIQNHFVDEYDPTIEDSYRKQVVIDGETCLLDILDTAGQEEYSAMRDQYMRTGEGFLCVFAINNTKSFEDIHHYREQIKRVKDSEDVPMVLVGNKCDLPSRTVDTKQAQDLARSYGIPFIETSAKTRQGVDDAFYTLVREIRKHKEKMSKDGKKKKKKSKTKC

The term inhibition denotes the drop in the measured response relative to a control, in per cent. `C=CC(=O)N1CC2(CCN(c3nc(OC4CCN(C)CC4)nc4c(OCC)c(-c5c(C)ccc6[nH]ncc56)c(C=C)cc34)CC2)C1` [Ex 5]: in the assay on pERK in NCI-H1373 tumor (NCI-H1373, sc, Subcutaneous administration, 3 mg/kg, read-out: pERK inhibition (%)), the inhibition at 3 mg/kg was determined as 72%. For the same compound, the IC50 in assay [1] is 31 nM.

On to `C=CC(=O)N1CC2(CCN(c3nc(OC4CCN(CC(C)(C)O)CC4)nc4c(OCC(F)(F)F)c(-c5c(C)ccc6[nH]ncc56)c(C=C)cc34)CC2)C1` [Ex 31], for which the IC50 was 8.3 nM with NCI-H1373 cells and 45 nM in assay [1]. The inhibition at 10 mg/kg with pERK in NCI-H1373 tumor (NCI-H1373, po, Oral administration, 10 mg/kg) came out at 51%.

Take `C=CC(=O)N1CC2(CCN(c3nc(OC4CCN(CCOC)CC4)nc4c(OCC(F)(F)C(F)(F)F)c(-c5c(C)ccc6[nH]ncc56)c(C=C)cc34)CC2)C1` [Example 79]: the results for the IC50 (in the assay on NCI-H1373 cells; in assay [2]; in assay [1]) were 43 nM, 16 nM and 57 nM, respectively.

Consider `C=CC(=O)N1CC2(CCN(c3nc(OC4CCN(CC(F)(F)F)CC4)nc4c(OCC(F)(F)F)c(-c5c(C)ccc6[nH]ncc56)c(C=C)cc34)CC2)C1` [Example 80], for which the IC50 was 75 nM with NCI-H1373 cells, 16 nM in assay [2] and 166 nM in assay [1].

Regarding `C=CC(=O)N1CC2(CCN(c3nc(OC4CCN(CCS(C)(=O)=O)CC4)nc4c(OCC(F)(F)F)c(-c5c(C)ccc6[nH]ncc56)c(C=C)cc34)CC2)C1` [Example 81], the IC50 in the assay on NCI-H1373 cells is 26 nM; in assay [2], 16 nM; in assay [1] it was 41 nM.

`C=CC(=O)N1CC2(CCN(c3nc(OC4CCN(CCCOC(F)(F)F)CC4)nc4c(OCC(F)(F)F)c(-c5c(C)ccc6[nH]ncc56)c(C=C)cc34)CC2)C1` [Example 83]: the IC50 was 51 nM in the assay with NCI-H1373 cells, 16 nM in assay [2] and 108 nM in assay [1].

On to `C=CC(=O)N1CC2(CCN(c3nc(OCCCN4CCOCC4)nc4c(OCC)c(-c5c(C)ccc6[nH]ncc56)c(C=C)cc34)CC2)C1` [Example 85], for which the IC50 with NCI-H1373 cells was found to be 27 nM; in assay [2], 17 nM; in assay [1], 56 nM.

As for `C=CC(=O)N1CC2(CCN(c3nc(OC4CCN(S(C)(=O)=O)CC4)nc4c(OCC(F)(F)F)c(-c5c(C)ccc6[nH]ncc56)c(C=C)cc34)CC2)C1` [Example 86], the IC50 with NCI-H1373 cells was found to be 37 nM; in assay [2], 12 nM; in assay [1], 72 nM.

On to `C=CC(=O)N1CC2(CCN(c3nc(OC4CCN(CCOC)CC4)nc4c(OCC(F)(F)F)c(-c5cccc6[nH]ncc56)c(C5CC5)cc34)CC2)C1` [Example 87], for which the figures for the IC50 (with NCI-H1373 cells; in assay [2]; in assay [1]) were 35 nM, 18 nM and 39 nM, respectively.

`C=CC(=O)N1CC2(CCN(c3nc(OC4CCN(C(=O)OC)CC4)nc4c(OCC(F)(F)F)c(-c5c(C)ccc6[nH]ncc56)c(C=C)cc34)CC2)C1` [Example 88]: the IC50 stood at 90 nM in the assay on NCI-H1373 cells, 19 nM in assay [2] and 148 nM in assay [1].

As for `C=CC(=O)N1CC2(CCN(c3nc(N4CCN(C)C(CC)C4)nc4c(OCC(F)(F)F)c(-c5c(C)ccc6[nH]ncc56)c(C=C)cc34)CC2)C1` (centres unmarked) [Example 89], the IC50 with NCI-H1373 cells is 40 nM; in assay [2] it was 19 nM; in assay [1] it was 53 nM.

As to `C=CC(=O)N1CC2(CCN(c3nc(OC4CCN(C(C)=O)CC4)nc4c(OCC(F)(F)F)c(-c5c(C)ccc6[nH]ncc56)c(C=C)cc34)CC2)C1` [Example 90], the IC50 with NCI-H1373 cells is 53 nM; in assay [2], 22 nM; in assay [1], 55 nM.

With `C=CC(=O)N1CC2(CCN(c3nc(CC4CCN(CCOC)CC4)nc4c(OCC(F)(F)F)c(-c5c(C)ccc6[nH]ncc56)c(C=C)cc34)CC2)C1` [Example 91], the IC50 in the assay with NCI-H1373 cells is 39 nM; in assay [2], 22 nM; in assay [1], 42 nM.

On to `C=CC(=O)N1CC2(CCN(c3nc(OC4CCN(CC)CC4)nc4c(OC)c(-c5c(Cl)ccc6[nH]ncc56)c(C=C)cc34)CC2)C1` [Reference example 1, reference compound], for which the IC50 in the assay on NCI-H1373 cells is 32 nM; in assay [2], 22 nM; in assay [1] it was 37 nM.

Turning to `C=CC(=O)N1CC2(CCN(c3nc(OC[C@@H]4CCCN4C)nc4c(OC)c(-c5c(C)ccc6[nH]ncc56)c(C=C)cc34)CC2)C1` [Reference example 2, reference compound], the IC50 was 22 nM in the assay on NCI-H1373 cells, 17 nM in assay [2] and 35 nM in assay [1].

(Values after patent publication US10774082B2, “Quinazoline compound” (Astellas Pharma Inc., priority 2017, dated 2020).)
